Patent publication US6121512A, “Cytochrome P-450 constructs and method of producing herbicide-resistant transgenic plants” (North Carolina State University, priority 1997, dated 2000)

What was measured:
soybean CYP71A10 = target: T1, soybean CYP71A10 (Glycine max, UniProt O48918); assay: In vitro herbicide metabolism assay and enzyme kinetics, microsomes of yeast expressing CYP71A10; assay type: biochemical; settings: for metabolites formed from the radiolabeled herbicide (TLC): 45 minutes at 27° C., 0.75 mM NADPH, 2.5 mg/ml microsomal protein
T1 construct: microsomes of yeast W(R) overexpressing endogenous P450 reductase
T1 sequence (O48918 1-513): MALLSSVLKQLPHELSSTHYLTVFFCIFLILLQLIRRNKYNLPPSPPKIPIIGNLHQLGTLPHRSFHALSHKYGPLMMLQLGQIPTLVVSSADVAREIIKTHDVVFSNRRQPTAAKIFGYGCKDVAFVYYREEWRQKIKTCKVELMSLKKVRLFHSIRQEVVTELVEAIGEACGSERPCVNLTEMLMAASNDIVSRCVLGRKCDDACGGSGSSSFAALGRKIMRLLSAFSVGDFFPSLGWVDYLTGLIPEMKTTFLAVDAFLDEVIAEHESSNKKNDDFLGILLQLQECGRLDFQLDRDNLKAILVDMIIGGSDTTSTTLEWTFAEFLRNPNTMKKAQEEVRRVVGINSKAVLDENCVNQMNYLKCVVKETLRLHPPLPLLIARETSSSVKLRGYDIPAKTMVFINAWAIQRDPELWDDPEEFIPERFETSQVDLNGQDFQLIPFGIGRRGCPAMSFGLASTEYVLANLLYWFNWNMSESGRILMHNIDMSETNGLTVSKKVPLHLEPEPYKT
T1 sequence (P16603 1-691 partner): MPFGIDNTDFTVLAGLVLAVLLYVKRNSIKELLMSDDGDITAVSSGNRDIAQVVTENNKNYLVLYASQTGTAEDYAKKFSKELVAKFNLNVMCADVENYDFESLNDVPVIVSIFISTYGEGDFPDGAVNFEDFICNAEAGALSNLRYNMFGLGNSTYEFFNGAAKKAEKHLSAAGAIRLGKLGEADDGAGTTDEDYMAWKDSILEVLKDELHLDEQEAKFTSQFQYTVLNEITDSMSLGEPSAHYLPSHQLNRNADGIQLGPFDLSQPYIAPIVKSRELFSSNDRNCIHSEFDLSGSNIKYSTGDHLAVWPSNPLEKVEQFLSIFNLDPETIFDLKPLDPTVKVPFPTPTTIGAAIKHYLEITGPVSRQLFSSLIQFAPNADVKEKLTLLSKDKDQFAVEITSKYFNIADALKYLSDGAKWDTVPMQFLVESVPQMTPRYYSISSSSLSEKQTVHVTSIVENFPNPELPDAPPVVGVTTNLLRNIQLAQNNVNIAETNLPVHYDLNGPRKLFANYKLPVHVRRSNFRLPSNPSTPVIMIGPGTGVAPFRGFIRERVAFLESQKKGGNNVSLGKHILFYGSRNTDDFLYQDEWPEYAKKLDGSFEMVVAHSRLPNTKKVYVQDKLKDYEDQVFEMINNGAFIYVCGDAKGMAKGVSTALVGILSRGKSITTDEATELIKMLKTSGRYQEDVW
Procedure: Yeast transformation was performed as described by Geitz et al., Nucleic Acids Research 20:1425 (1992). Media composition, culturing conditions, galactose induction, and microsomal preparations were conducted according to Pompon et al., Methods Enzymol. 272:51-64 (1995), using a culture volume of 250 ml. Microsomal protein was quantified spectrophotometrically using the method of Waddell, J. Lab. Clin. Med. 48:311-314 (1956), using bovine albumin as a standard. Dithionite-reduced, carbon monoxide difference spectra was obtained as previously outlined (Estabrook and Werringloer, Methods Ennzmol. 52:212-220 (1978)) using a Shimadzu Recording Spectrophotometer UV-240 (Shimadzu, Kyoto, Japan). P-450 protein concentrations of yeast microsomes were calculated using a millimolar extinction coefficient of 91 (Omura and Sato, J. Biol. Chem., 239:2370-2378 (1964)).
Yeast microsomes enriched for a discrete soybean P-450 isozyme were assayed for their capacity to metabolize the ten herbicides and one insecticide listed in Table 3. The reaction mixtures contained 10,000 DPM (100-200 ng) radiolabeled substrate, 0.75 mM NAPDH, 2.5 mg/ml microsomal protein. Total reaction volumes were adjusted to 150 μl with 50 mM phosphate buffer (pH 7.1). The mixtures were incubated under light for 45 minutes at 27° C., arrested with 50 μl acetone and centriftiged at 14 000×g for 2 minutes. […] Radiolabeled bentazon and imazaquin-containing samples were spotted onto 200 micron Whatman LKC18F silica gel reversed-phase plates. All plates were developed in a benzene/acetone 2:1 (v/v) solvent system with the exception of prosulfaron, developed in toluene/acetone/acetic acid, 75:20:5 (v/v/v), and bentazon and imazaquin, developed in methanol/75 mM sodium acetate 40:60 (v/v). The developed plates were scanned with a Bioscan System 400 imaging scanner (Bioscan, Washington, D.C.), and the production of metabolites was determined based on the chromatographic profiles. For microsomes containing the expressed CYP71A10 enzyme, control experiments were also conducted to measure the NADPH-dependency, and the inhibitory effects of CO. CO treatment of the sample was achieved by gentle bubbling of the gas through the reaction mixture for 2 minutes immediately before the assay was initiated by the addition of NADPH.
Substrate conversion was quantified by a combination of TLC analysis and scintillation spectrometry. The location of the metabolic products on the TLC plates was identified using an imaging scanner, the bands were scraped and analyzed by scintillation spectrometry. The amount of metabolite produced was calculated based on specific activity and scintillation counts. Each assay was repeated at least twice. Km and Vmax values were estimated using nonlinear regression analysis.

[1] = tested on: excised leaves of control tobacco plants transformed with pBI121; assay: In vivo herbicide metabolism assay, excised leaves of control tobacco; set-up: species or system Nicotiana tabacum cv SR1; settings: for share of the chlortoluron metabolites produced in control leaves: 14 hours, TLC; for % of herbicide metabolized, Control: after 14 hours, 1.2 nmol herbicide, standard error in parentheses, three pBI121 control plants
Procedure: (§1) Seeds from primary transgenic tobacco plants transformed with CYP71A10 and control plants transformed with the pBI121 vector were grown in Petri dishes containing MS salts and 100 μg/ml kanamycin. At five weeks post-seeding, kanamycin-resistant plantlets were transplanted into pots containing soil and grown an additional two weeks. Single leaves of approximately 10 cm^2 in size were excised and their petioles inserted into 100 μl of H2 O containing radiolabeled herbicide. The leaves were placed in a growth chamber maintaining a temperature of 27° C. and incubated until the entire volume of the herbicide solution was drawn up by the transpirational stream of the leaves (about 3 hrs). The leaves were subsequently transferred into an Eppendorf tube containing distilled water and further incubated for a total of 14 hours.
(§2) [^14 C]-labeled herbicide was extracted from the leaves by grinding for 5 minutes in 250 μl methanol with a plastic pellet pestle driven by an electric drill. After centrifugation for 3 minutes at 14,000 g, 75μl of the supernatant was spotted on a Whatman K6F silica plate and developed in a solvent system containing chloroforn/ethanol/acetic acid 135:10:15 (v/v/v). The separated herbicide derivatives were visualized using an imaging scanner. Substrate conversion was quantified based on the amount of herbicide absorbed, and the ratios of the parent compound and the produced metabolites determined from the TLC profiles.

[2] = tested on: excised leaves of transgenic tobacco plant 25/2 progeny (CYP71A10-transformed); assay: In vivo herbicide metabolism assay, excised leaves of CYP71A10-transformed tobacco; set-up: species or system Nicotiana tabacum cv SR1; settings: for share of the chlortoluron metabolites recovered from CYP71A10-transformed leaves: 14 hours, TLC; for % of herbicide metabolized, CYP71A10-transformed: after 14 hours, 1.2 nmol herbicide, standard error in parentheses, four 25/2 plants
Procedure: as §1, §2

[3] = tested on: wild-type SR1 plants and pBI121-transformed control tobacco plants; assay: Herbicide tolerance, seeds germinated on herbicide medium, control tobacco; assay type: in vivo, Nicotiana tabacum cv SR1; settings: data not shown
Procedure: (§3) T1 generation seeds from CYP71A10-transformed tobacco and pBI121-transformed control plants were placed onto Petri dishes containing MS salts and linuron (using its commercial formulation LOROX 50 DF) at active ingredient concentrations ranging from 0.25 to 3.0 μM. Chlortoluron was added at 0, 1.0, 5.0 and 10.0 μM concentrations using a 99.5% pure analytical standard. The Petri dishes were incubated in a growth chamber maintaining a constant temperature of 27° C. and a 16/8 hour light/dark cycle. The phytotoxic effects of the treatments were determined visually by comparison to control plants and plants grown in the absence of the herbicide. All treatments were repeated at least twice.

Hill-reaction = settings: cited from earlier work
[4] = tested on: CYP71A10-transformed tobacco; assay: Herbicide tolerance, seeds germinated on herbicide medium, CYP71A10-transformed tobacco; assay type: in vivo, Nicotiana tabacum cv SR1; settings: for tolerance of line 25/2 to the herbicide: compared with control plants, data not shown
Procedure: as §3

[5] = substrate: CN(C)C(=O)Nc1ccc(Cl)c(Cl)c1; assay: cells, lysate or membranes named; settings: other: yeast microsomes containing CYP71A10; standard error in parentheses; nonlinear regression; pH 7.1; 27.0 °C
[6] = substrate: Cc1ccc(NC(=O)N(C)C)cc1Cl; assay: In vitro herbicide metabolism assay and enzyme kinetics, microsomes of yeast expressing CYP71A10; assay type: biochemical, soybean (Glycine max); settings: other: yeast microsomes containing CYP71A10; standard error in parentheses; nonlinear regression; pH 7.1; 27.0 °C
[7] = substrate: CN(C)C(=O)Nc1cccc(C(F)(F)F)c1; assay: as above; assay type: biochemical, soybean (Glycine max); settings: other: yeast microsomes containing CYP71A10; standard error in parentheses; nonlinear regression; pH 7.1; 27.0 °C
[8] = substrate: CON(C)C(=O)Nc1ccc(Cl)c(Cl)c1; assay: as above; assay type: biochemical, soybean (Glycine max); settings: other: yeast microsomes containing CYP71A10; standard error in parentheses; nonlinear regression; pH 7.1; 27.0 °C
[9] = yeast microsomes containing CYP71A10, standard error in parentheses

Clc1ccc(N2N=NC3C4CC(C5N=NC45)C32)cc1 (centres unmarked) [tetcyclasis]
effect on linuron metabolizing activity (soybean CYP71A10): completely abolished

CNC(=O)Nc1ccc(C)c(Cl)c1 [N-demethyl chlortoluron]
share of the chlortoluron metabolites produced in control leaves [1]: Sixty three
share of the chlortoluron metabolites produced in control leaves ([1]; listed as Ndemethyl chlortoluron): 63%
share of the chlortoluron metabolites recovered from CYP71A10-transformed leaves [2]: 8%

[C-]#[O+] [CO, carbon monoxide]
reduction of linuron metabolizing activity (soybean CYP71A10; linuron as substrate (3.2 μM), CO bubbled through reaction mixture for 2 minutes): approximately 37%

CN(C)C(=O)Nc1ccc(CO)c(Cl)c1 [ring-methyl hydroxy chlortoluron]
share of the chlortoluron metabolites recovered from CYP71A10-transformed leaves [2]: 47%

CON(C)C(=O)Nc1ccc(Cl)c(Cl)c1 [Linuron, linuron]
% of herbicide metabolized, Control [1]: 12 (2.6) %
growth of wild-type SR1 and pBI121 control plants ([3]; 0.25 μM linuron (LOROX 50 DF) in medium): severely inhibited
growth of wild-type SR1 and pBI121 control plants ([3]; linuron 0.5 μM and higher in medium): completely arrested
metabolites formed from the radiolabeled herbicide (TLC) (soybean CYP71A10): two (a major and a minor) metabolites
linuron metabolizing activity with microsomes of yeast expressing only the V60 control plasmid (soybean CYP71A10; V-60 control microsomes, no CYP71A10): no activity is detected
linuron metabolites when NADPH is omitted from the reaction (soybean CYP71A10; no NADPH): no metabolites are observed
Turnover (soybean CYP71A10; [9]): 2.8 (0.27) min^-1
inhibition of the Hill-reaction relative to N-demethyl linuron (Hill-reaction): 10 fold
germinated seedlings of plant 25/2 inhibited by the herbicide ([4]; 0.5 μM linuron in medium): one of 23
number of 20 other independent CYP71A10-expressing lines giving linuron tolerant progeny ([4]; 0.5 μM linuron in medium): 19 lines
linuron level to which tolerant 25/2 plants were observed ([4]; increasing percentage of plants inhibited with rising concentration): ≤ 2.5 µM
% of herbicide metabolized, CYP71A10-transformed [2]: 87 (2.0) %

CN(C)C(=O)Nc1ccc(Cl)c(Cl)c1 [Diuron, diuron]
% of herbicide metabolized, Control [1]: 20 (2.0) %
metabolites formed from the radiolabeled herbicide (TLC) (soybean CYP71A10): a single metabolite
Turnover (soybean CYP71A10; [9]): 0.4 (0.04) min^-1
Vmax (soybean CYP71A10; [9]): 16.8 (1.6) pmol min^-1 mg^-1 protein
tolerance of line 25/2 to the herbicide [4]: little tolerance
% of herbicide metabolized, CYP71A10-transformed [2]: 49 (7.0) %

CN(C)C(=O)Nc1cccc(C(F)(F)F)c1 [Fluometuron, fluometuron]
% of herbicide metabolized, Control [1]: 15 (0.6) %
metabolites formed from the radiolabeled herbicide (TLC) (soybean CYP71A10): a single metabolite
Turnover (soybean CYP71A10; [9]): 6.8 (0.24) min^-1
tolerance of line 25/2 to the herbicide [4]: little tolerance
% of herbicide metabolized, CYP71A10-transformed [2]: 91 (4.5) %

B1: soybean CYP71A10 (Glycine max) (protein)
chain: MALLSSVLKQLPHELSSTHYLTVFFCIFLILLQLIRRNKYNLPPSPPKIPIIGNLHQLGTLPHRSFHALSHKYGPLMMLQLGQIPTLVVSSADVAREIIKTHDVVFSNRRQPTAAKIFGYGCKDVAFVYYREEWRQKIKTCKVELMSLKKVRLFHSIRQEVVTELVEAIGEACGSERPCVNLTEMLMAASNDIVSRCVLGRKCDDACGGSGSSSFAALGRKIMRLLSAFSVGDFFPSLGWVDYLTGLIPEMKTTFLAVDAFLDEVIAEHESSNKKNDDFLGILLQLQECGRLDFQLDRDNLKAILVDMIIGGSDTTSTTLEWTFAEFLRNPNTMKKAQEEVRRVVGINSKAVLDENCVNQMNYLKCVVKETLRLHPPLPLLIARETSSSVKLRGYDIPAKTMVFINAWAIQRDPELWDDPEEFIPERFETSQVDLNGQDFQLIPFGIGRRGCPAMSFGLASTEYVLANLLYWFNWNMSESGRILMHNIDMSETNGLTVSKKVPLHLEPEPYKT
notes: microsomes of yeast W(R) overexpressing endogenous P450 reductase
Km [5]: 1.5 µM
Km [6]: 1 µM
Vmax [6]: 29.4 (2.2) pmol min^-1 mg^-1 protein
Km [7]: 14.9 µM
Km [8]: 9.8 µM
Vmax [8]: 125.6 (12.0) pmol min^-1 mg^-1 protein
